# Experimental data published in US20240158348A1, “HERBICIDAL CYCLIC AMIDES N-SUBSTITUTED WITH A HALOALKYLSULFONYLANILIDE GROUP” (FMC Corporation, priority 2021, published 2024).
# Experiments:
# Type in all cases: in vivo
# [1] = tested on: blackgrass (Alopecurus myosuroides); test: Test C preemergence, blackgrass; settings: 0 is no effect, 100 is complete control
# Text: (§1) Seeds of plant species selected from blackgrass (Alopecurus myosuroides), corn (Zea mays), foxtail, giant (giant foxtail, Setaria faberi), goosegrass (Eleusine indica), kochia (Bassia scoparia), oat, wild (wild oat, Avena fatua), pigweed, palmer (palmer amaranth, Amaranthus palmeri), ragweed (common ragweed, Ambrosia artemisiifolia), ryegrass, Italian (Italian ryegrass, Lolium multiflorum), soybean (Glycine max) and wheat (Triticum aestivum) were planted into a blend of loam soil and sand and treated preemergence with a directed soil spray using test chemicals formulated in a non-phytotoxic solvent mixture which included a surfactant.
# (§2) At the same time, plants selected from these crop and weed species and also galium (catchweed bedstraw, Galium aparine) and horseweed (Erigeron canadensis) were planted in pots containing the same blend of loam soil and sand and treated with postemergence applications of test chemicals formulated in the same manner. Plants ranged in height from 2 to 10 cm and were in the one- to two-leaf stage for the postemergence treatment. Treated plants and untreated controls were maintained in a greenhouse for 10 or 12 days, after which time all treated plants were compared to untreated controls and visually evaluated for injury. Plant response ratings, summarized in Table A, are based on a 0 to 100 scale where 0 is no effect and 100 is complete control. A dash (-) response means no test result.
# corn (Zea mays) [2] = test: Test C preemergence, corn; settings: 0 is no effect, 100 is complete control
# Text: as §1, §2
# [3] = tested on: foxtail, giant (giant foxtail, Setaria faberi); test: Test C preemergence, giant foxtail; settings: 0 is no effect, 100 is complete control
# Text: as §1, §2
# [4] = tested on: goosegrass (Eleusine indica); test: Test C preemergence, goosegrass; settings: 0 is no effect, 100 is complete control
# Text: as §1, §2
# kochia (Bassia scoparia) [5] = test: Test C preemergence, kochia; settings: 0 is no effect, 100 is complete control
# Text: as §1, §2
# [6] = tested on: oat, wild (wild oat, Avena fatua); test: Test C preemergence, wild oat; settings: 0 is no effect, 100 is complete control
# Text: as §1, §2
# [7] = tested on: pigweed, palmer (palmer amaranth, Amaranthus palmeri); test: Test C preemergence, palmer amaranth; settings: 0 is no effect, 100 is complete control
# Text: as §1, §2
# [8] = tested on: ragweed (common ragweed, Ambrosia artemisiifolia); test: Test C preemergence, ragweed; settings: 0 is no effect, 100 is complete control
# Text: as §1, §2
# [9] = tested on: ryegrass, Italian (Italian ryegrass, Lolium multiflorum); test: Test C preemergence, Italian ryegrass; settings: 0 is no effect, 100 is complete control
# Text: as §1, §2
# soybean (Glycine max) [10] = test: Test C preemergence, soybean; settings: 0 is no effect, 100 is complete control
# Text: as §1, §2
# [11] = tested on: wheat (Triticum aestivum); test: Test C preemergence, wheat; settings: 0 is no effect, 100 is complete control
# Text: as §1, §2
# [12] = tested on: blackgrass (Alopecurus myosuroides); test: Test C postemergence, blackgrass; settings: visual injury, 0 to 100 scale (0 no effect, 100 complete control)
# Text: as §1, §2
# corn (Zea mays) [13] = test: Test C postemergence, corn; settings: visual injury, 0 to 100 scale (0 no effect, 100 complete control)
# Text: as §1, §2
# [14] = tested on: foxtail, giant (giant foxtail, Setaria faberi); test: Test C postemergence, giant foxtail; settings: visual injury, 0 to 100 scale (0 no effect, 100 complete control)
# Text: as §1, §2
# [15] = tested on: goosegrass (Eleusine indica); test: Test C postemergence, goosegrass; settings: visual injury, 0 to 100 scale (0 no effect, 100 complete control)
# Text: as §1, §2
# kochia (Bassia scoparia) [16] = test: Test C postemergence, kochia; settings: visual injury, 0 to 100 scale (0 no effect, 100 complete control)
# Text: as §1, §2
# [17] = tested on: oat, wild (wild oat, Avena fatua); test: Test C postemergence, wild oat; settings: visual injury, 0 to 100 scale (0 no effect, 100 complete control)
# Text: as §1, §2
# [18] = tested on: pigweed, palmer (palmer amaranth, Amaranthus palmeri); test: Test C postemergence, palmer amaranth; settings: visual injury, 0 to 100 scale (0 no effect, 100 complete control)
# Text: as §1, §2
# [19] = tested on: ragweed (common ragweed, Ambrosia artemisiifolia); test: Test C postemergence, ragweed; settings: visual injury, 0 to 100 scale (0 no effect, 100 complete control)
# Text: as §1, §2
# [20] = tested on: ryegrass, Italian (Italian ryegrass, Lolium multiflorum); test: Test C postemergence, Italian ryegrass; settings: visual injury, 0 to 100 scale (0 no effect, 100 complete control)
# Text: as §1, §2
# soybean (Glycine max) [21] = test: Test C postemergence, soybean; settings: visual injury, 0 to 100 scale (0 no effect, 100 complete control)
# Text: as §1, §2
# [22] = tested on: wheat (Triticum aestivum); test: Test C postemergence, wheat; settings: visual injury, 0 to 100 scale (0 no effect, 100 complete control)
# Text: as §1, §2
# [23] = tested on: galium (catchweed bedstraw, Galium aparine); test: Test C postemergence, galium; settings: visual injury, 0 to 100 scale (0 no effect, 100 complete control)
# Text: as §1, §2
# [24] = tested on: horseweed (Erigeron canadensis); test: Test C postemergence, horseweed; settings: visual injury, 0 to 100 scale (0 no effect, 100 complete control)
# Text: as §1, §2
# [25] = tested on: barnyardgrass (Echinochloa crusgalli); test: Test D flooded paddy test, barnyardgrass; parameters: key: 0 = no effect, 100 = complete control; settings: 250 g ai/ha, Flood; applied to paddy water at 2-leaf stage; visual rating after 13 days; scale 0 (no effect) to 100 (complete control)
# Method: (§3) Plant species in the flooded paddy test selected from barnyardgrass (Echinochloa crusgalli), ducksalad (Heteranthera limosa), rice (Oryza sativa), and sedge, umbrella (small-flower umbrella sedge, Cyperus difformis) were grown to the 2-leaf stage for testing. At time of treatment, test pots were flooded to 3 cm above the soil surface, treated by application of test compounds directly to the paddy water, and then maintained at that water depth for the duration of the test. Treated plants and controls were maintained in a greenhouse for 13 days, after which time all species were compared to controls and visually evaluated. Plant response ratings, summarized in Table B, are based on a scale of 0 to 100 where 0 is no effect and 100 is complete control. A dash (-) response means no test result.
# [26] = tested on: ducksalad (Heteranthera limosa); test: Test D flooded paddy test, ducksalad; parameters: key: 0 = no effect, 100 = complete control; settings: 250 g ai/ha, Flood; applied to paddy water at 2-leaf stage; visual rating after 13 days; scale 0 (no effect) to 100 (complete control)
# Method: as §3
# rice (Oryza sativa) = test: Test D flooded paddy test, rice; parameters: key: 0 = no effect, 100 = complete control; settings: 250 g ai/ha, Flood; applied to paddy water at 2-leaf stage; visual rating after 13 days; scale 0 (no effect) to 100 (complete control)
# Method: as §3
# [27] = tested on: sedge, umbrella (small-flower umbrella sedge, Cyperus difformis); test: Test D flooded paddy test, umbrella sedge; parameters: key: 0 = no effect, 100 = complete control; settings: 250 g ai/ha, Flood; applied to paddy water at 2-leaf stage; visual rating after 13 days; scale 0 (no effect) to 100 (complete control)
# Method: as §3
smiles,measurement,setting,value
CC#CCOC1CCN(c2cc(NS(=O)(=O)C(F)(F)F)c(C)cc2C)C1=O (stereo not shown) [Compound 60],"Plant response rating (0 to 100 scale), Blackgrass",[1]; 31 g ai/ha Preemergence,80
same,"Plant response rating (0 to 100 scale), Blackgrass",[1]; 125 g ai/ha Preemergence,90
same,"Plant response rating (0 to 100 scale), Corn",corn (Zea mays) [2]; 31 g ai/ha Preemergence,30
same,"Plant response rating (0 to 100 scale), Corn",corn (Zea mays) [2]; 125 g ai/ha Preemergence,100
same,"Plant response rating (0 to 100 scale), Foxtail, Giant",[3]; 31 g ai/ha Preemergence,100
same,"Plant response rating (0 to 100 scale), Foxtail, Giant",[3]; 125 g ai/ha Preemergence,100
same,"Plant response rating (0 to 100 scale), Goosegrass",[4]; 31 g ai/ha Preemergence,90
same,"Plant response rating (0 to 100 scale), Goosegrass",[4]; 125 g ai/ha Preemergence,100
same,"Plant response rating (0 to 100 scale), Kochia",kochia (Bassia scoparia) [5]; 31 g ai/ha Preemergence,90
same,"Plant response rating (0 to 100 scale), Kochia",kochia (Bassia scoparia) [5]; 125 g ai/ha Preemergence,100
same,"Plant response rating (0 to 100 scale), Oat, Wild",[6]; 31 g ai/ha Preemergence,90
same,"Plant response rating (0 to 100 scale), Oat, Wild",[6]; 125 g ai/ha Preemergence,100
same,"Plant response rating (0 to 100 scale), Pigweed, Palmer",[7]; 31 g ai/ha Preemergence,100
same,"Plant response rating (0 to 100 scale), Pigweed, Palmer",[7]; 125 g ai/ha Preemergence,100
same,"Plant response rating (0 to 100 scale), Ragweed",[8]; 31 g ai/ha Preemergence,90
same,"Plant response rating (0 to 100 scale), Ragweed",[8]; 125 g ai/ha Preemergence,100
same,"Plant response rating (0 to 100 scale), Ryegrass, Italian",[9]; 31 g ai/ha Preemergence,70
same,"Plant response rating (0 to 100 scale), Ryegrass, Italian",[9]; 125 g ai/ha Preemergence,100
same,"Plant response rating (0 to 100 scale), Soybean",soybean (Glycine max) [10]; 31 g ai/ha Preemergence,50
same,"Plant response rating (0 to 100 scale), Soybean",soybean (Glycine max) [10]; 125 g ai/ha Preemergence,90
same,"Plant response rating (0 to 100 scale), Wheat",[11]; 31 g ai/ha Preemergence,40
same,"Plant response rating (0 to 100 scale), Wheat",[11]; 125 g ai/ha Preemergence,100
same,Blackgrass plant response rating,[12]; 31 g ai/ha Postemergence,50
same,Blackgrass plant response rating,[12]; 125 g ai/ha Postemergence,90
same,Corn plant response rating,corn (Zea mays) [13]; 31 g ai/ha Postemergence,90
same,Corn plant response rating,corn (Zea mays) [13]; 125 g ai/ha Postemergence,100
same,"Foxtail, Giant plant response rating",[14]; 31 g ai/ha Postemergence,80
same,"Foxtail, Giant plant response rating",[14]; 125 g ai/ha Postemergence,90
same,Goosegrass plant response rating,[15]; 31 g ai/ha Postemergence,80
same,Goosegrass plant response rating,[15]; 125 g ai/ha Postemergence,90
same,Kochia plant response rating,kochia (Bassia scoparia) [16]; 31 g ai/ha Postemergence,100
same,Kochia plant response rating,kochia (Bassia scoparia) [16]; 125 g ai/ha Postemergence,90
same,"Oat, Wild plant response rating",[17]; 31 g ai/ha Postemergence,30
same,"Oat, Wild plant response rating",[17]; 125 g ai/ha Postemergence,90
same,"Pigweed, Palmer plant response rating",[18]; 31 g ai/ha Postemergence,60
same,"Pigweed, Palmer plant response rating",[18]; 125 g ai/ha Postemergence,90
same,Ragweed plant response rating,[19]; 31 g ai/ha Postemergence,80
same,Ragweed plant response rating,[19]; 125 g ai/ha Postemergence,90
same,"Ryegrass, Italian plant response rating",[20]; 31 g ai/ha Postemergence,50
same,"Ryegrass, Italian plant response rating",[20]; 125 g ai/ha Postemergence,70
same,Soybean plant response rating,soybean (Glycine max) [21]; 31 g ai/ha Postemergence,80
same,Soybean plant response rating,soybean (Glycine max) [21]; 125 g ai/ha Postemergence,100
same,Wheat plant response rating,[22]; 31 g ai/ha Postemergence,80
same,Wheat plant response rating,[22]; 125 g ai/ha Postemergence,90
same,Galium plant response rating,[23]; 31 g ai/ha Postemergence,100
same,Galium plant response rating,[23]; 125 g ai/ha Postemergence,100
same,Horseweed plant response rating,[24]; 31 g ai/ha Postemergence,80
same,Horseweed plant response rating,[24]; 125 g ai/ha Postemergence,100
same,"Plant response rating, Barnyardgrass",[25],90
same,"Plant response rating, Ducksalad",[26],90
same,"Plant response rating, Rice",rice (Oryza sativa),35
same,"Plant response rating, Sedge, Umbrella",[27],95
